Measurements: patent publication US7259188B2, “Methods and pharmaceutical compositions for treatment of anti-estrogen resistant breast cancer using RXR modulators” (priority 1998, dated 2007)
Where two headings read alike, the source gives them in different places.

Tests used:
RXRβ = target: T1, RXRβ (UniProt P28704); assay type: cell-based
T1 sequence (P28704 1-520): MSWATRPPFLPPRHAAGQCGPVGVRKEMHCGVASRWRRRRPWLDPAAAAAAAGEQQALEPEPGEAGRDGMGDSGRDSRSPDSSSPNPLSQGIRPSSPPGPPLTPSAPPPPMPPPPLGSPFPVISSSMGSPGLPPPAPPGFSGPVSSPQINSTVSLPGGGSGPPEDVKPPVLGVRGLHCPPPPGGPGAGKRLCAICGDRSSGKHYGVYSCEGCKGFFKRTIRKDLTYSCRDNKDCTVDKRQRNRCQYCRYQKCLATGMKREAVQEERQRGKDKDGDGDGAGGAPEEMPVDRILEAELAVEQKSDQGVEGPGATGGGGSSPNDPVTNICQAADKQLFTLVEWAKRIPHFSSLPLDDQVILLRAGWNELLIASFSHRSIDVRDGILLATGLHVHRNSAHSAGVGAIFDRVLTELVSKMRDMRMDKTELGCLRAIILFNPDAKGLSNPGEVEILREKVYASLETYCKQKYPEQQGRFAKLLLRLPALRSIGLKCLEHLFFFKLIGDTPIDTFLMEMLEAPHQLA
Text: Briefly, the co-transfection assay involves the introduction of two plasmids by transient transfection into a retinoid receptor-negative mammalian cell background. The first plasmid contains a retinoid receptor cDNA and directs constitutive expression of the encoded receptor. The second plasmid contains a cDNA that encodes for a readily quantifiable protein, e.g., firefly luciferase or chloramphenicol acetyl transferase (CAT), under control of a promoter containing a retinoid acid response element, which confers retinoid dependence on the transcription of the reporter. […] This assay can be used to accurately measure efficacy and potency of retinoic acid and synthetic retinoids as ligands that interact with the individual retinoid receptor subtypes.

[1] = tested on: tumors that grew in the presence of the low-dose tamoxifen; test: Example 2: NMU-induced tumors that grew in the presence of low-dose tamoxifen; conditions: LGD1069 100 mg/kg PO added to low-dose tamoxifen therapy, compared to treatment with tamoxifen (800 μg/kg SC)
primary mammary tumors = test: Example 4: NMU-induced mammary tumors, submaximally efficacious doses alone and coadministered; assay type: in vivo, Sprague-Dawley rats; conditions: for primary mammary tumors regressed: single agent at submaximally efficacious dose: LGD1069 10 mg/kg, tamoxifen 150 mg/kg
Description: (§1) Mammary tumorigenesis was induced by administration of 50 mg/kg of N-nitroso-N-methylurea (NMU) (Sigma, St. Louis, Mo.) to 50 day old virgin female Sprague-Dawley rats (Harlan-SD, Indianapolis, Ind.). […] Fresh solutions of NMU were injected within 30 minutes of preparation. The animals were injected in the tail vein with 5 mg NMU/100 g body weight. Rats were housed in a USDA registered facility in accordance with NIH guidelines for the care and use of laboratory animals. […] Beginning five weeks after tumor induction, animals were examined for tumors twice a week. Tumors were measured with electronic calipers (Mitushoyo, Japan) and cross sectional areas were determined by multiplying the longest length of the tumor by the greatest perpendicular width of the tumor.

[2] = tested on: established mammary tumors; test: Example 3: established NMU-induced mammary tumors, six weeks of treatment; assay type: in vivo, Sprague-Dawley rats; conditions: for tumors completely regressed / tumors continued to progress / tumors partially regressed: LGD1069 100 mg/kg or tamoxifen 800 μg/kg
Description: Mammary tumorigenesis was induced by administration of 50 mg/kg of N-nitroso-N-methylurea (NMU) (Sigma, St. Louis, Mo.) to 50 day old virgin female Sprague-Dawley rats (Harlan-SD, Indianapolis, Ind.). NMU was formulated as an aqueous solution of 10 mg/ml by wetting NMU powder with 3% acetic acid and dissolving it in sterile saline. Fresh solutions of NMU were injected within 30 minutes of preparation. The animals were injected in the tail vein with 5 mg NMU/100 g body weight. Rats were housed in a USDA registered facility in accordance with NIH guidelines for the care and use of laboratory animals. […] Beginning five weeks after tumor induction, animals were examined for tumors twice a week. Tumors were measured with electronic calipers (Mitushoyo, Japan) and cross sectional areas were determined by multiplying the longest length of the tumor by the greatest perpendicular width of the tumor.

[3] = tested on: mammary carcinoma development; conditions: NMU-treated rat, compared with tamoxifen; cited from earlier work
[4] = tested on: tamoxifen-resistant primary tumors; test: Example 1: tumor response of tamoxifen-resistant NMU-induced mammary tumors; assay type: in vivo, Sprague-Dawley rats; conditions: additional six weeks; for combined response of partial or complete regression / incidence of progressive disease / complete regression of tumors: LGD1069 100 mg/kg orally daily added to tamoxifen 800 μg/kg sc daily, versus tamoxifen alone; for complete regression of tumors: p<0.05
Description: as §1

[5] = tested on: estrogen receptor positive breast cancers; conditions: patients, tamoxifen treatment; cited from earlier work

With `CC1=C(/C=C/C(C)=C\C=C\C(C)=C\C(=O)O)C(C)(C)CCC1` [9-cis-retinoic acid, reference compound] the Efficacy (RXRβ; RXRβ, co-transfection assay) was 140%.
Compound `Cc1cc2c(cc1/C(=N/O)c1ccc(C(=O)O)cc1)C(C)(C)CCC2(C)C` [LDG100324] has an Efficacy (RXRβ) of 51% and an EC50 (RXRβ; read-out: Potency) of 8 nM.
For `C=C(c1ccc(C(=O)O)cc1)c1cc2c(cc1C)C(C)(C)CCC2(C)C` [LGD1069], the “amount of progressive disease” value [1] was “significantly reduced the amount of progressive disease”, the tumors completely regressing (primary mammary tumors; LGD1069 10 mg/kg coadministered with tamoxifen 150 mg/kg) was 26.3% and the “primary mammary tumors regressed” value (primary mammary tumors) was 10.5%. For the same compound, the “antitumor efficacy on established mammary tumors” value ([2]; LGD1069 100 mg/kg daily for six weeks, compared with tamoxifen 800 μg/kg) was “greater efficacy than treatment with tamoxifen”, the tumors completely regressed ([2]; daily for six weeks) was 72.2% and the “tumors continued to progress” value ([2]; daily for six weeks) was 11.1%. For the same compound, the tumors partially regressed ([2]; daily for six weeks) was 16.7%, the “inhibiting mammary carcinoma development (chemopreventive)” value [3] was “as effective as the anti-estrogen tamoxifen” and the “combined response of partial or complete regression” value [4] was “more than 90%”. The “incidence of progressive disease” value [4] was 3%, the “complete regression of tumors” value [4] was 56% and the “incidence of stable disease” value ([4]; LGD1069 100 mg/kg orally daily added to tamoxifen, compared with tamoxifen alone) was “reduced the incidence”.
In the case of `CC/C(=C(\c1ccccc1)c1ccc(OCCN(C)C)cc1)c1ccccc1` [tamoxifen, reference compound], the “primary mammary tumors regressed” value (primary mammary tumors) is listed as 5.6%, the “estrogen receptor positive breast cancers that respond to treatment” value [5] is listed as “approximately 66%” and the tumors completely regressed ([2]; daily for six weeks) is listed as 33.3%. The “tumors continued to progress” value ([2]; daily for six weeks) was 28.6%, the tumors partially regressed ([2]; daily for six weeks) was 33.3% and the tumors remained static ([2]; daily for six weeks, tamoxifen 800 μg/kg) was 4.8%. For the same compound, the “combined response of partial or complete regression” value [4] was 44%, the “incidence of progressive disease” value [4] was 44% and the “complete regression of tumors” value [4] was 16.7%.
